The values below come from patent US9290511B2, “Thieno-pyrimidines, useful as potassium channel inhibitors” (XENTION LIMITED, priority 2011, dated 2016).

The target of the experiment is T1, Kir3.1/3.4 (Rattus norvegicus, UniProt P48548+P63251).
T1 construct: expressed in transfected cells
T1 sequence (P63251 1-501): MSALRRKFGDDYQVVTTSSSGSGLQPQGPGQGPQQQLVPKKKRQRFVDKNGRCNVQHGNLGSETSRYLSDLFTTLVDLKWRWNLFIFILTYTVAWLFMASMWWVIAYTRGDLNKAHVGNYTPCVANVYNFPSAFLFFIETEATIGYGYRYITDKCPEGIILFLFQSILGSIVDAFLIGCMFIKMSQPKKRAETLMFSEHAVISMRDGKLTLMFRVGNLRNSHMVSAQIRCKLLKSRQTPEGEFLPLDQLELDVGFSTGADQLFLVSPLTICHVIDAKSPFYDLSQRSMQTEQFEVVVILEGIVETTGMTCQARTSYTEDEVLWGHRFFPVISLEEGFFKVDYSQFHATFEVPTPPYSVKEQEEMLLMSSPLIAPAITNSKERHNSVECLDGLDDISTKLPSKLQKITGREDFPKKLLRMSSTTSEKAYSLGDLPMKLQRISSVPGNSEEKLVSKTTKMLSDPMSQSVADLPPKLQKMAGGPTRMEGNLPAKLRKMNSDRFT
T1 sequence (P48548 1-419): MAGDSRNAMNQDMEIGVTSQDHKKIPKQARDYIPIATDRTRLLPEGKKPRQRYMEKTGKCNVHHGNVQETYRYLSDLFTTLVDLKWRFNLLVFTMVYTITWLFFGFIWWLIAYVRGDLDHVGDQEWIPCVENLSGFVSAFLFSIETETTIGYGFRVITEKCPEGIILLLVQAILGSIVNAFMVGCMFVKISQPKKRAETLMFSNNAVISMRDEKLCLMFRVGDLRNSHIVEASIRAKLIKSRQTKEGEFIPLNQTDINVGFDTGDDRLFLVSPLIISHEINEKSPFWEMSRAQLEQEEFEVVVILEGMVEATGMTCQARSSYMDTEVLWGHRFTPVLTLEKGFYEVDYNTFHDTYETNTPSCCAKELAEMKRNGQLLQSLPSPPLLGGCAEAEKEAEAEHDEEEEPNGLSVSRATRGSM
The experiment is described as follows: Kir3.1/3.4 Q-patch Method (automated patch clamp, Sophion Q-patch). The experiment is classed as cell-based. The conditions noted are these: HEK293 cells stably-expressing Kir3.1/3.4; current at -120 mV; QPatch-16 or QPatch-48. As for the experimental part:
For automated patch-clamp studies using the Sophion Q-patch, accumulative concentration-responses experiments were conducted to determine compound activity against the ion channel target. Voltage-clamp experiments were performed using HEK293 cells stably-expressing Kir3.1/3.4 using either a QPatch-16 or QPatch-48 (Sophion Bioscience A/S). A voltage waveform (VHold−20 mV, step to 60 mV for 100 ms, ramp to −120 mV over 500 ms, hold at −120 mV for 100 ms before returning to VHold) was repeatedly applied to the cells under voltage-clamp at a frequency of 0.1 Hz to elicit Kir3.1/3.4 currents. Mean current at −120 mV was measured in the absence (Icontrol) and presence of drug (IDrug). Assessment of passive leak was performed by removal of external potassium (IZero). Leak current was subtracted from control and drug recordings. Current inhibition (%) was calculated as {1−[(IDrug−IZero)/(IControl−IZero)]}*100. Data were fitted with a sigmoidal function to yield an IC50 and Hill coefficient. Composition of external experimental buffer was (in mM): 40 NaCl, 100 KCl, 5 CaCl2, 1 MgCl2, 10 HEPES pH 7.4. Composition of internal solution was (in mM). 40 K-gluconate, 60 KF, 20 NaCl, 5 Mg-ATP, 0.9 GTPgS, 20 EGTA, pH 7.2. Compounds were formulated in DMSO and diluted in buffer to give a final drug concentration of between […] and a final DMSO concentration of 0.1-0.3%.
(The patch-clamp technique gives a direct electrical read-out from membranes.)

For the compound `Clc1ccccc1-c1csc2nc(N3CCOCC3)nc(N3C4CCC3COC4)c12` [Example 425, 8-[5-(2-chlorophenyl)-2-morpholino-thieno[2,3-d]pyrimidin-4-yl]-3-oxa-8-azabicyclo[3.2.1]octane], the IC50 (usually the concentration at which inhibition is half-maximal) was < 500 nM. In the case of `COC1CC2CCC(C1)N2c1nc(N2C3CCC2CC(O)C3)nc2scc(-c3ccccc3Cl)c12` (stereo not shown) [Example 375, 8-[5-(2-chlorophenyl)-4-(3-methoxy-8-azabicyclo[3.2.1]octan-8-yl)thieno[2,3-d]pyrimidin-2-yl]-8-azabicyclo[3.2.1]octan-3-ol] it was 500 to 3000 nM; in that of `NC(=O)C1CN(c2nc(N3C4CCC3COC4)c3c(-c4ccccc4Cl)csc3n2)CCO1` (stereo not shown) [Example 420, 4-[5-(2-chlorophenyl)-4-(3-oxa-8-azabicyclo[3.2.1]octan-8-yl)thieno[2,3-d]pyrimidin-2-yl]morpholine-2-carboxamide], < 500 nM; in that of `COCC1CC2CCC(C1)N2c1nc(N2C3CCC2CC(O)C3)nc2scc(-c3ccccc3OC)c12` (stereo not shown) [Example 372, 8-[4-[3-(methoxymethyl)-8-azabicyclo[3.2.1]octan-8-yl]-5-(2-methoxyphenyl)thieno[2,3-d]pyrimidin-2-yl]-8-azabicyclo[3.2.1]octan-3-ol], < 500 nM. In the case of `COc1ccccc1-c1csc2nc(N3CCNC(C(N)=O)C3)nc(N3C4CCC3COC4)c12` (stereo not shown) [Example 398, 4-[5-(2-methoxyphenyl)-4-(3-oxa-8-azabicyclo[3.2.1]octan-8-yl)thieno[2,3-d]pyrimidin-2-yl]piperazine-2-carboxamide] it was < 500 nM; in that of `COc1ccccc1-c1csc2nc(N3CCC(C(N)=O)C3)nc(N3C4CCC3CC(OC)C4)c12` (stereo not shown) [Example 396, 1-[4-(3-methoxy-8-azabicyclo[3.2.1]octan-8-yl)-5-(2-methoxyphenyl)thieno[2,3-d]pyrimidin-2-yl]pyrrolidine-3-carboxamide], < 500 nM. In the case of `O=C1CN(c2nc(N3C4CCC3COC4)c3c(-c4ccccc4Cl)csc3n2)CCN1` [Example 424, 4-[5-(2-chlorophenyl)-4-(3-oxa-8-azabicyclo[3.2.1]octan-8-yl)thieno[2,3-d]pyrimidin-2-yl]piperazin-2-one] it was < 500 nM.

For `NC(=O)C1CCN(c2nc(N3C4CCC3CC(O)C4)nc3scc(-c4ccccc4Cl)c23)C1` (stereo not shown) [Example 412, 1-[5-(2-chlorophenyl)-2-(3-hydroxy-8-azabicyclo[3.2.1]octan-8-yl)thieno[2,3-d]pyrimidin-4-yl]pyrrolidine-3-carboxamide], the IC50 fell in the range of 500 to 3000 nM. Consider `COc1ccccc1-c1csc2nc(N3CCNC(=O)C3)nc(N3C4CCC3COC4)c12` [Example 403, 4-[5-(2-methoxyphenyl)-4-(3-oxa-8-azabicyclo[3.2.1]octan-8-yl)thieno[2,3-d]pyrimidin-2-yl]piperazin-2-one], for which the IC50 is < 500 nM.

On to `COC1CC2CCC(C1)N2c1nc(N2CCNC(=O)C2)nc2scc(-c3ccccc3Cl)c12` (stereo not shown) [Example 391, 4-[5-(2-chlorophenyl)-4-(3-methoxy-8-azabicyclo[3.2.1]octan-8-yl)thieno[2,3-d]pyrimidin-2-yl]piperazin-2-one], for which the IC50 lay within 500 to 3000 nM. As for `COC1CC2CCC(C1)N2c1nc(N2CCCC(C(N)=O)C2)c2c(-c3ccccc3Cl)csc2n1` (stereo not shown) [Example 374, 1-[5-(2-chlorophenyl)-2-(3-methoxy-8-azabicyclo[3.2.1]octan-8-yl)thieno[2,3-d]pyrimidin-4-yl]piperidine-3-carboxamide], the IC50 is < 500 nM. Then `NC(=O)C1CCCN(c2nc(N3C4CCC3COC4)nc3scc(-c4ccccc4Cl)c23)C1` (stereo not shown) [Example 411, 1-[5-(2-chlorophenyl)-2-(3-oxa-8-azabicyclo[3.2.1]octan-8-yl)thieno[2,3-d]pyrimidin-4-yl]piperidine-3-carboxamide], with 500 to 3000 nM; and `COc1ccccc1-c1csc2nc(N3C4CCC3CC(O)C4)nc(N3C4CCC3CC(OC)C4)c12` (stereo not shown) [Example 377, 8-[4-(3-methoxy-8-azabicyclo[3.2.1]octan-8-yl)-5-(2-methoxyphenyl)thieno[2,3-d]pyrimidin-2-yl]-8-azabicyclo[3.2.1]octan-3-ol], with 500 to 3000 nM. Then `COc1ccccc1-c1csc2nc(N3C4CCC3CC(CO)C4)nc(N3C4CCC3CC(OC)C4)c12` (stereo not shown) [Example 371, [8-[4-(3-methoxy-8-azabicyclo[3.2.1]octan-8-yl)-5-(2-methoxyphenyl)thieno[2,3-d]pyrimidin-2-yl]-8-azabicyclo[3.2.1]octan-3-yl]methanol], with 500 to 3000 nM; and `COc1ccccc1-c1csc2nc(C#N)nc(N3C4CCC3CC(OC)C4)c12` (stereo not shown) [Example 405, 4-(3-methoxy-8-azabicyclo[3.2.1]octan-8-yl)-5-(2-methoxyphenyl)thieno[2,3-d]pyrimidine-2-carbonitrile], with 500 to 3000 nM; and `COCC1CC2CCC(C1)N2c1nc(N2C3CCC2COC3)c2c(-c3ccccc3OC)csc2n1` (stereo not shown) [Example 395, 8-[2-[3-(methoxymethyl)-8-azabicyclo[3.2.1]octan-8-yl]-5-(2-methoxyphenyl)thieno[2,3-d]pyrimidin-4-yl]-3-oxa-8-azabicyclo[3.2.1]octane], with 500 to 3000 nM.
